Measured values published in article PMC6286390, “Discovering de novo peptide substrates for enzymes using machine learning” (Nature Communications, 2018).
“Also recorded” adds a separate entry of the source.

Tests used:
B. subtilis Sfp = assay: SPOT cellulose membrane peptide labeling with TAMRA-CoA by Sfp; type: biochemical, Bacillus subtilis; settings: 10 µM PPTase, 40 µM TAMRA-CoA, 0.01% Triton X, 15 µM BSA, 50 mM Tris-HCl pH 8.0, 10 mM MgCl2, 16 h, 37 °C, fluorescence ex 532 nm/em 580 nm
Description: (§1) The peptides were synthesized on an amino-PEG-cellulose 10×15 cm^2 membrane and synthesized automatically by MultiPep RSi (INTAVIS Bioanalytical Instruments AG). After Fmoc cleavage with 20% 4-methyl piperidine (Sigma) in dimethylformamide (DMF), activated with 1 equiv. hydroxybenzotriazole and 2 equiv. N-methylpyrrolidone (NMP), and directly spotted on the membrane; after 15 min this step was repeated. The membrane was washed with DMF (3 × 3 min). Solutions of the Fmoc amino acids in NMP were spotted on the membrane (0.6 M solutions; 0.8 M solutions for C, H, N, Q, and R; triple coupling, 15 min each). The Fmoc group was removed from the spots, and the sequences of the peptides were completed using the standard SPOT synthesis protocol and followed by an N-terminal tag. […]
(§2) Synthesized membranes were deprotected with cleavage cocktail consisting of 94% trifluoroacetic acid (TFA), 2.5% water, 1% triisopropylsilane (Sigma), and 2.5% 1,2-ethanedithiol (Sigma) shaking at 2 h at room temperature. […] The membranes were rinsed liberally with TBST buffer, 0.1% TFA, and distilled deionized water before imaging on a Typhoon TRIO Variable Mode Imager (GE Healthcare BioSciences) at 50-µm resolution with 532 nm green laser excitation and 580 nm emission filter and a photomultiplier tube setting of 350 V. The membrane images were analyzed by the ImageJ software[37],[38].

S. coelicolor AcpS = assay: SPOT cellulose membrane peptide labeling with TAMRA-CoA by AcpS; type: biochemical, Streptomyces coelicolor; settings: 10 µM PPTase, 40 µM TAMRA-CoA, 0.01% Triton X, 15 µM BSA, 50 mM Tris-HCl pH 8.0, 10 mM MgCl2, 16 h, 37 °C, fluorescence ex 532 nm/em 580 nm
Description: as §1, §2

Sequence	labeling of membrane-bound peptide by Sfp (substrate / hit) (B. subtilis Sfp)	labeling of membrane-bound peptide by AcpS (substrate / hit) (S. coelicolor AcpS)
AVKMESLEYLDTM [4F01, Sfp-type peptide hit identified by POOL, round 4]	Sfp-type peptide hits; also recorded: specific to Sfp	–
IHDGADSVVWLWSNC	neither a substrate for Sfp nor AcpS	neither a substrate for Sfp nor AcpS
WPEEGIESFMSVPPP [4T25, AcpS-type peptide hit identified by POOL, round 4]	–	AcpS-type peptide hits; also recorded: specific to AcpS
